The record followed here is US8796256B2 (Janssen Pharmaceutica NV, priority 2010, dated 2014).

The EC50 is the concentration needed to bring the measured effect to its halfway point. Read a high EC50 as weaker potency.

This test has as its target T1, ERR1 (also known as ERR-α or ERR-1) (Homo sapiens, UniProt P11474).
T1 sequence (P11474 193-421 limits assumed): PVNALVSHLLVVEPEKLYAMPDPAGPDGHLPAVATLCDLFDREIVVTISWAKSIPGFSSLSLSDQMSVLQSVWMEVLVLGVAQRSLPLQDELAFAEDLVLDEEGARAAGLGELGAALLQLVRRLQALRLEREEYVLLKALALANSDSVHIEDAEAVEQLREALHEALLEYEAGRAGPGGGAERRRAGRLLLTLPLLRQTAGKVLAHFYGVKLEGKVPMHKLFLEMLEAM
Kind of test: TR-FRET assay (disruption of co-activator peptide binding to ERR1 LBD). It counts as biochemical. Particulars: 6 nM 6His-ERR1LBD, 6 nM GST-SRC-2 peptide; average of 3 independent experiments. The procedure, abridged:
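His-tagged ERR1 ligand-binding domain and GST-labelled SRC-2 peptide, each 6 nM, equilibrated at 25° C for 4-18 h in Tris pH 8/Hepes/KCl/DTT/delipidated BSA buffer. Compound-induced loss of co-activator binding read as Eu cryptate→XL665 energy transfer; values from hyperbolic curve fits averaged over 3 independent runs.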
On the technique in general: In TR-FRET formats the signal depends on donor and acceptor labels being close together.
In turn, `CCN1CC[C@@H](N2C(=O)S/C(=C\c3ccc4c(c3)c(C)nn4Cc3ccc(Cl)cc3C(F)(F)F)C2=O)[C@H](F)C1` (relative stereo) [Compound 334, (5Z)-5-({1-[4-Chloro-2-(trifluoromethyl)benzyl]-3-methyl-1H-indazol-5-yl}methylidene)-3-[trans-1-ethyl-3-fluoropiperidin-4-yl]-1,3-thiazolidine-2,4-dione] gave a 50% effective concentration (EC50) of 48 nM. With `O=C1S/C(=C\c2ccc3c(cnn3Cc3ccc(Cl)cc3C(F)(F)F)c2)C(=O)N1Cc1ncc[nH]1` [Compound 403, (5Z)-5-({1-[4-Chloro-2-(trifluoromethyl)benzyl]-1H-indazol-5-yl}methylidene)-3-(1H-imidazol-2-ylmethyl)-1,3-thiazolidine-2,4-dione], the 50% effective concentration (EC50) stood at 20 nM. The result for `O=C1S/C(=C\c2ccc3c(cnn3Cc3ccc(Cl)cc3C(F)(F)F)c2)C(=O)N1CCc1ccncc1` [Compound 108, (5Z)-5-({1-[4-Chloro-2-(trifluoromethyl)benzyl]-1H-indazol-5-yl}methylidene)-3-(2-pyridin-4-ylethyl)-1,3-thiazolidine-2,4-dione] reads 102 nM. The result for `Cc1nn(Cc2ccc(Cl)cc2C(F)(F)F)c2ccc(/C=C3\SC(=O)N(CC(=O)NS(=O)(=O)N(C)C)C3=O)cc12` [Compound 39, 2-[(5Z)-5-({1-[4-Chloro-2-(trifluoromethyl)benzyl]-3-methyl-1H-indazol-5-yl}methylidene)-2,4-dioxo-1,3-thiazolidin-3-yl]-N-(dimethylsulfamoyl)acetamide] reads 43 nM. As for `NC[C@H]1CC[C@H](CN2C(=O)S/C(=C\c3ccc4c(cnn4Cc4ccc(Cl)cc4C(F)(F)F)c3)C2=O)CC1` [Compound 106, (5Z)-3-{[trans-4-(Aminomethyl)cyclohexyl]methyl}-5-({1-[4-chloro-2-(trifluoromethyl)benzyl]-1H-indazol-5-yl}methylidene)-1,3-thiazolidine-2,4-dione], the figure is 350 nM; as for `O=C(O)CCCN1C(=O)S/C(=C\c2ccc3c(cnn3Cc3ccc(Cl)cc3C(F)(F)F)c2)C1=O` [Compound 97, 4-[(5Z)-5-({1-[4-Chloro-2-(trifluoromethyl)benzyl]-1H-indazol-5-yl}methylidene)-2,4-dioxo-1,3-thiazolidin-3-yl]butanoic acid], 47 nM; as for `O=C1S/C(=C\c2ccc3c(cnn3Cc3ccc(Cl)cc3C(F)(F)F)c2)C(=O)N1CC(=O)N1CCNS1(=O)=O` [Compound 415], 12 nM.

`CN(C)CCCN1C(=O)S/C(=C\c2ccc3c(ccn3Cc3ccc(Cl)cc3C(F)(F)F)c2)C1=O` [Compound 244, (5Z)-5-[(1-{[4-Chloro-2-(trifluoromethyl)phenyl]methyl}-1H-indol-5-yl)methylidene]-3-[3-(dimethylamino)-propyl]-1,3-thiazolidine-2,4-dione]: a half-maximal effect (EC50) was put at 50 nM.

Molecule `O=C1S/C(=C\c2ccc3c(cnn3Cc3ccc(Cl)cc3C(F)(F)F)c2)C(=O)N1CCNS(=O)(=O)N1CCCC1` [Compound 399, N-{2-[(5Z)-5-({1-[4-Chloro-2-(trifluoromethyl)benzyl]-1H-indazol-5-yl}methylidene)-2,4-dioxo-1,3-thiazolidin-3-yl]ethyl}pyrrolidine-1-sulfonamide] had a concentration giving a half-maximal response (EC50) of 79 nM.

In the case of `O=C1S/C(=C\c2ccc3c(cnn3Cc3ccc(Cl)cc3C(F)(F)F)c2)C(=O)N1CCC1CCNCC1` [Compound 164, (5Z)-5-({1-[4-Chloro-2-(trifluoromethyl)benzyl]-1H-indazol-5-yl}methylidene)-3-(2-piperidin-4-ylethyl)-1,3-thiazolidine-2,4-dione], the response was half-maximal at 47 nM (EC50).

The molecule `O=C1S/C(=C\c2ccc3c(cnn3Cc3ccc(Cl)cc3C(F)(F)F)c2)C(=O)N1C[C@H]1CCCNC1` [Compound 96, (5Z)-5-({1-[4-Chloro-2-(trifluoromethyl)benzyl]-1H-indazol-5-yl}methylidene)-3-[(3S)-piperidin-3-ylmethyl]-1,3-thiazolidine-2,4-dione] yielded an EC50 of 67 nM. As for `O=C(O)C(C1CCNCC1)N1C(=O)S/C(=C\c2ccc3c(cnn3Cc3ccc(Cl)cc3C(F)(F)F)c2)C1=O` (stereo not shown) [Compound 224, [(5Z)-5-({1-[4-Chloro-2-(trifluoromethyl)benzyl]-1H-indazol-5-yl}methylidene)-2,4-dioxo-1,3-thiazolidin-3-yl](piperidin-4-yl)acetic acid], the figure is 22 nM; as for `CN(C)CCN1C(=O)S/C(=C\c2ccc3c(ccn3Cc3ccc(Cl)cc3C(F)(F)F)c2)C1=O` [Compound 243, (5Z)-5-[(1-{[4-Chloro-2-(trifluoromethyl)phenyl]methyl}-1H-indol-5-yl)methylidene]-3-[2-(dimethylamino)ethyl]-1,3-thiazolidine-2,4-dione], 50 nM; as for `CS(=O)(=O)CCN1C(=O)S/C(=C\c2ccc3c(cnn3Cc3ccc(Cl)cc3C(F)(F)F)c2)C1=O` [Compound 129, (5Z)-5-({1-[4-Chloro-2-(trifluoromethyl)benzyl]-1H-indazol-5-yl}methylidene)-3-[2-(methylsulfonyl)ethyl]-1,3-thiazolidine-2,4-dione], 18 nM. The result for `CS(=O)(=O)NN1C(=O)S/C(=C\c2ccc3c(cnn3Cc3ccc(F)cc3C(F)(F)F)c2)C1=O` [Compound 363, N-[(5Z)-5-({1-[4-Fluoro-2-(trifluoromethyl)benzyl]-1H-indazol-5-yl}methylidene)-2,4-dioxo-1,3-thiazolidin-3-yl]methanesulfonamide] reads 59 nM; that for `O=C1S/C(=C\c2ccc3c(c2)c(Cl)nn3Cc2ccc(Cl)cc2C(F)(F)F)C(=O)N1CCN1CCCC1` [Compound 300, (5Z)-5-({3-Chloro-1-[4-chloro-2-(trifluoromethyl)benzyl]-1H-indazol-5-yl}methylidene)-3-(2-pyrrolidin-1-ylethyl)-1,3-thiazolidine-2,4-dione], 7 nM.

Consider `CN(C)CCCN1C(=O)S/C(=C\c2ccc3c(cnn3Cc3ccc(C(F)(F)F)cc3C(F)(F)F)c2)C1=O` [Compound 6, (5Z)-5-[(1-{[2,4-Bis(trifluoromethyl)-phenyl]methyl}-1H-indazol-5-yl)methylidene]-3-[3-(dimethylamino)-propyl]-1,3-thiazolidine-2,4-dione], for which the midpoint of the response, the EC50, lay at 35 nM. As for `CN(CCN1C(=O)S/C(=C\c2ccc3c(cnn3Cc3ccc(Cl)cc3C(F)(F)F)c2)C1=O)S(C)(=O)=O` [Compound 397, N-{2-[(5Z)-5-({1-[4-Chloro-2-(trifluoromethyl)benzyl]-1H-indazol-5-yl}methylidene)-2,4-dioxo-1,3-thiazolidin-3-yl]ethyl}-N-methylmethanesulfonamide], the figure is 23 nM.

Molecule `O=C1S/C(=C\c2ccc3c(cnn3Cc3ccc(Cl)cc3C(F)(F)F)c2)C(=O)N1C1CCCNC1` (stereo not shown) [Compound 124, (5Z)-5-({1-[4-Chloro-2-(trifluoromethyl)benzyl]-1H-indazol-5-yl}methylidene)-3-piperidin-3-yl-1,3-thiazolidine-2,4-dione] registered a 50% effective concentration (EC50) of 51 nM.

On to `O=C1S/C(=C\c2ccc3c(cnn3Cc3ccc(C(F)(F)F)cc3C(F)(F)F)c2)C(=O)N1C[C@@H]1CCCN2CCCC[C@H]12` [Compound 207, (5Z)-5-({1-[2,4-Bis(trifluoromethyl)benzyl]-1H-indazol-5-yl}methylidene)-3-[(1S,9aR)-octahydro-2H-quinolizin-1-ylmethyl]-1,3-thiazolidine-2,4-dione], for which the EC50 is 192 nM.

The molecule `O=C1S/C(=C\c2ccc3c(cnn3Cc3ccc(C(F)(F)F)cc3C(F)(F)F)c2)C(=O)N1C1CN2CCC1CC2` (stereo not shown) [Compound 63, (5Z)-3-(1-Azabicyclo[2.2.2]oct-3-yl)-5-({1-[2,4-bis(trifluoromethyl)benzyl]-1H-indazol-5-yl}methylidene)-1,3-thiazolidine-2,4-dione] yielded a concentration for a half-maximal effect (EC50) of 20 nM. As for `CN1C(=O)S/C(=C\c2ccc3c(cnn3Cc3ccc(Cl)cc3C(F)(F)F)c2)C1=O` [Compound 127, (5Z)-5-({1-[4-Chloro-2-(trifluoromethyl)-benzyl]-1H-indazol-5-yl}methylidene)-3-methyl-1,3-thiazolidine-2,4-dione], the figure is 32 nM; as for `CCOC(=O)[C@@H]1CCC[C@H]1N1C(=O)S/C(=C\c2ccc3c(cnn3Cc3ccc(Cl)cc3C(F)(F)F)c2)C1=O` [Compound 141, Ethyl (1R,2R)-2-[(5Z)-5-({1-[4-chloro-2-(trifluoromethyl)benzyl]-1H-indazol-5-yl}methylidene)-2,4-dioxo-1,3-thiazolidin-3-yl]cyclopentanecarboxylate], 183 nM. As for `O=C1S/C(=C\c2ccc3c(cnn3Cc3ccc(F)cc3C(F)(F)F)c2)C(=O)N1[C@@H]1CCNC[C@H]1O` (relative stereo) [Compound 272, (5Z)-5-({1-[4-Fluoro-2-(trifluoromethyl)-benzyl]-1H-indazol-5-yl}methylidene)-3-[trans-3-hydroxypiperidin-4-yl]-1,3-thiazolidine-2,4-dione], the figure is 153 nM. In turn, `Cc1nc(CN2C(=O)S/C(=C\c3ccc4c(c3)nnn4Cc3ccc(Cl)cc3C(F)(F)F)C2=O)n[nH]1` [Compound 263, (5Z)-5-({1-[4-Chloro-2-(trifluoromethyl)benzyl]-1H-benzotriazol-5-yl}methylidene)-3-[(5-methyl-1H-1,2,4-triazol-3-yl)methyl]-1,3-thiazolidine-2,4-dione] registered a concentration giving a half-maximal response (EC50) of 16 nM.
